Like-named read-outs stand apart in the source and are kept apart here.
Tests used:
[1] = test system: ion channel site; parameters: method as in PMID 26325093; conditions: displacement binding studies; cited from earlier work
[2] = target: ion channel of NMDA-R; parameters: method as in PMID 25648682; conditions: unlabelled compounds; rat forebrain membranes; read-out: concentrations that inhibit specific binding of [^3H]MK-801; cited from earlier work
[3] = test system: PCP binding site; conditions: cited from earlier work
[4] = test system: NMDA-R ion channel site; parameters: method as in PMID 26325093; conditions: rats, 3 mg ∙ kg^−1 IV, cited from earlier work
[5] = test system: NMDA-R; parameters: method as in PMID 26661185; conditions: humans; intravenous ketamine 0.3 mg · kg^−1; on average; cited from earlier work
[6] = Plasma ketamine concentration during PET; assay type: in vivo, human
Description: The final arterial plasma input function was derived using both continuous and discrete arterial blood data. The input function was corrected for plasma to whole blood ratio, metabolites, and time delay. For each scan, two additional plasma input functions were generated to investigate the effect of within-subject and between-subject variability in plasma data. For the within-subject averaged input function, the mean of PET1 and PET2 [^18F]PK-209 parent fractions per subject were used at each of the eight sample timepoints for both scans. For the population-averaged input function, the mean parent fractions for all five subjects in the TRT and ketamine groups (i.e., 10 scans) were taken at each timepoint. The manual arterial blood samples were also used for assessment of the plasma ketamine concentration. The area under the ketamine concentration–time curve was estimated by means of the trapezoidal rule.
(§1) The (S+)-isomer of ketamine (0.5 mg · kg^−1) was dissolved in NaCl 50 mL and administered intravenously in a pseudo-steady state model with a sub-acute loading dose. First, ketamine was administered for 40 min at a rate of 0.006 mg · kg^−1 · min^−1 followed by a 130 min equilibrium phase at 0.002 mg · kg^−1 · min^−1. [^18F]PK-209 injection and start of PET were performed at 10 min into the equilibrium phase, following 0.26 mg · kg^−1 administration in the preceding 50 min.

[7] = Tolerability of ketamine infusion; assay type: in vivo, human
Method: as §1

[8] = parameters: method as in PMID 18176855; conditions: 1.1 mg ∙ kg^−1 S-ketamine over 75 min; cited from earlier work

Structure (SMILES): C[C@]12N[C@H](Cc3ccccc31)c1ccccc12 [MK-801]
- potency relative to (±)ketamine at the ion channel site [1]: two orders of magnitude more potent

Structure (SMILES): COc1cccc(N(C)C(=N)Nc2cc(SC)ccc2Cl)c1 [GMOM, reference compound]
- K i [2]: 21.7 nM

Structure (SMILES): CSc1cccc(N(C)C(N)=Nc2cc(SCC[18F])ccc2Cl)c1 [[^18F]GE-179]
- block of the PET signal by cold GE-179 ([3]; GE-179 0.6 mg ∙ kg^−1 at steady state, bolus-plus-infusion, anesthetized non-human primates): did not significantly block the PET signal
- specificity of the PET signal ([3]; preclinical in vivo evaluation): largely non-specific

Structure (SMILES): CNC1(c2ccccc2Cl)CCCCC1=O (racemic) [(±)ketamine]
- inhibition of [^3H]MK-801 binding ([4]; 1 min post-dosing): 67%
- inhibition of [^3H]MK-801 binding ([4]; 20 min post-dose): 19%

Structure (SMILES): COc1cccc(N(C)C(=N)Nc2cc(SC)ccc2Cl)c1 [[^11C]GMOM, [11C]N-(2-chloro-5-thiomethylphenyl)-N′-(3-methoxy-phenyl)-N′-methylguanidine]
- reduction of radiotracer net influx rate (Ki) in whole brain gray matter [5]: 66%

Structure (SMILES): CNC1(c2ccccc2Cl)CCCCC1=O (stereo not drawn) [ketamine]
- mean plasma ketamine concentration, plateau ([6]; between 20 and 60 min after the start of PET, 0.5 mg ∙ kg^−1 infusion): ~ 100 ng ∙ mL^−1
- mean plasma ketamine concentration ([6]; end of the scan, 160 min since the start of infusion): ~ 70 ng ∙ mL^−1
- tolerability ([7]; S-ketamine 0.5 mg · kg^−1 intravenous infusion, healthy subjects): well tolerated by all subjects
- feelings of dissociation ([7]; at the start of PET scanning): reported by all subjects
- mean plasma concentration [8]: 173 ng/mL

Source: article PMC6063804 (EJNMMI Research, 2018)
